Literature values in patent publication US20240117436A1, “METHODS OF TREATING LIPEDEMA INCLUDING AKR1C2 AS A THERAPEUTIC TARGET” (MAGI EUREGIO SCS, priority 2021, published 2024).

target: AKR enzymes; details: mid-nanomolar value; read-out: affinity of cofactor in binding AKR enzymes

Compound | Kd
NADP(H) [NADP(H) (NPD)] | 100 nM

target: T1, AKR1C1 (Homo sapiens, UniProt Q04828); details: not given
T1 sequence (Q04828 1-323): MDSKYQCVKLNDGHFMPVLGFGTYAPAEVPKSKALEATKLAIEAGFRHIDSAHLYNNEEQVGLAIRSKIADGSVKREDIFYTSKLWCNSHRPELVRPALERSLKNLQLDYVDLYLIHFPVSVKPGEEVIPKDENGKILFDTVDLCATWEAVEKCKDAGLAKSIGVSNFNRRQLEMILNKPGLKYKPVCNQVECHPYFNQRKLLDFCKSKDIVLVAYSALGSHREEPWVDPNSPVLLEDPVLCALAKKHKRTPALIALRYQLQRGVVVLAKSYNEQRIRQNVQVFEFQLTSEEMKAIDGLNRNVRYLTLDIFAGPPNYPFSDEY

Compound | Enzyme activity (inhibition/activation)
CN1C(=O)CN=C(c2ccccc2F)c2cc([N+](=O)[O-])ccc21 [Flunitrazepam] | inhibition
O=C1CN=C(c2ccccn2)c2cc(Br)ccc2N1 [Bromazepam] | inhibition
CN1C(=O)CN=C(c2ccccc2)c2cc(Cl)ccc21 [Diazepam] | inhibition
O=C1CN2CCOC2(c2ccccc2Cl)c2cc(Cl)ccc2N1 (centres unmarked) [Cloxazolam] | inhibition
O=C1CN=C(c2ccccc2)c2cc([N+](=O)[O-])ccc2N1 [Nitrazepam] | inhibition

same assay, conditions: AKR1C1, known from the literature

Compound | Enzyme activity (inhibition/activation)
O=C1CCCC1 [Cyclopentanone] | inhibition
CC(C(=O)O)c1cccc(C(=O)c2ccccc2)c1 (centres unmarked) [Ketoprofen] | inhibition
O=C1CC(c2ccccc2)Oc2ccccc21 (centres unmarked) [Flavanone] | inhibition
O=c1cc(-c2ccccc2)oc2cc(O)cc(O)c12 [Chrysin, 5,7-Dihydroxyflavone] | inhibition
O=c1cc(-c2ccccc2)oc2cccc(O)c12 [5-Hydroxyflavone] | inhibition
CC1CN2CC(=O)Nc3ccc(Cl)cc3C2(c2ccccc2)O1 (centres unmarked) [Oxazolam] | inhibition
COc1c(O)cc(O)c2c(=O)cc(-c3ccccc3)oc12 [Wagonin] | inhibition
O=c1c(-c2ccc(O)cc2)coc2cc(O)ccc12 [Daidzein] | inhibition
O=c1cc(-c2ccc(O)cc2)oc2cc(O)cc(O)c12 [Apigenin] | inhibition
CC(=O)Nc1ccc(O)cc1 [Paracetamol] | inhibition
CC(C)(C)c1cc(O)ccc1O [T-Butylhydroquinone] | activation
C#C[C@]1(O)CC[C@H]2[C@@H]3CCC4=CC(=O)CC[C@@H]4[C@H]3CC[C@@]21C [Norethindrone] | inhibition
O=c1cc(-c2ccccc2)oc2cc(O)ccc12 [7-Hydroxyflavone] | inhibition
COC1=C(OC)C(=O)c2ccccc2C1=O [2,3-Dimethoxynaphthalene-1,4-Dione, 2,3-dimethoxynaphthalene-1,4-dione] | activation
O=c1c(-c2ccc(O)cc2)coc2cc(O)cc(O)c12 [Genistein] | inhibition
C[C@H]1CCCC(=O)CCC/C=C/c2cc(O)cc(O)c2C(=O)O1 [Zearalenone] | inhibition
OO [Hydrogen peroxide] | activation
CC/C(=C(\c1ccccc1)c1ccc(OCCN(C)C)cc1)c1ccccc1 [Tamoxifen] | inhibition
COc1ccc2c(c1)c(CC(=O)O)c(C)n2C(=O)c1ccc(Cl)cc1 [Indomethacin] | inhibition
Cc1cc(CC(=O)O)n(C)c1C(=O)c1ccc(Cl)cc1 [Zomepirac] | inhibition
O=c1ccc2ccccc2o1 [Coumarin] | inhibition
CCc1cccc2c3c([nH]c12)C(CC)(CC(=O)O)OCC3 (centres unmarked) [Etodolac] | inhibition
CC/C=C\CC1C(=O)CCC1CC(=O)OC (centres unmarked) [Methyl Jasmonate] | inhibition
O=C(O)c1cccc(Oc2ccccc2)c1 [3-Phenoxybenzoic Acid] | inhibition
O=C(O)c1cc(I)cc(I)c1O [3,5-Diiodosalicylic Acid] | inhibition
O=c1cc(-c2ccccc2)oc2ccccc12 [Flavone] | inhibition
CC(=O)Oc1ccccc1C(=O)O [Acetylsalicylic Acid] | inhibition

Compound | Enzyme activity (inhibition/activation)
COc1ccc(-c2coc3cc(O)cc(O)c3c2=O)cc1 [Biochanin A] | inhibition
O=c1oc2cc(O)ccc2c2oc3cc(O)ccc3c12 [Coumestrol] | inhibition
CC1(C)[C@@H](O)CC[C@]2(C)[C@H]3C(=O)C=C4[C@@H]5C[C@@](C)(C(=O)O)CC[C@]5(C)CC[C@@]4(C)[C@]3(C)CC[C@@H]12 [Glycyrrhetinic Acid] | inhibition
CC1=C(CC(=O)O)c2cc(F)ccc2/C1=C\c1ccc([S+](C)[O-])cc1 (centres unmarked) [Sulindac] | inhibition
O=C1C[C@@H](c2ccc(O)cc2)Oc2cc(O)cc(O)c21 [Naringenin] | inhibition
CC/C(=C(/CC)c1ccc(O)cc1)c1ccc(O)cc1 [Diethylstilbestrol] | inhibition
O=c1c(O)c(-c2ccc(O)c(O)c2)oc2cc(O)cc(O)c12 [Quercetin] | inhibition
C[C@]12CC[C@H]3C(=CCc4cc(O)ccc43)[C@@H]1CCC2=O [Equilin] | inhibition
O=c1c(O)c(-c2ccccc2)oc2ccccc12 [3-Hydroxyflavone] | inhibition
COc1cccc2oc(-c3ccccc3)cc(=O)c12 [5-Methoxyflavone] | inhibition
O=c1cc(-c2ccc(O)c(O)c2)oc2cc(O)cc(O)c12 [Luteolin] | inhibition
COc1ccc2cc([C@H](C)C(=O)O)ccc2c1 [Naproxen] | inhibition
O=C(O)Cc1ccccc1Nc1c(Cl)cccc1Cl [Diclofenac] | inhibition
CC(C)Cc1ccc(C(C)C(=O)O)cc1 (centres unmarked) [Ibuprofen] | inhibition
CC(=O)[C@H]1CC[C@H]2[C@@H]3C=CC4=CC(=O)CC[C@@]4(C)[C@@H]3CC[C@]12C [Dydrogesterone] | inhibition
C=C(CC)C(=O)c1ccc(OCC(=O)O)c(Cl)c1Cl [Ethacrynic Acid] | activation
CC(=O)O[C@]1(C(C)=O)CC[C@H]2[C@@H]3C[C@H](C)C4=CC(=O)CC[C@]4(C)[C@H]3CC[C@@]21C [Medroxyprogesterone Acetate] | inhibition
CN1CCN=C(c2ccccc2)c2cc(Cl)ccc21 [Medazepam] | inhibition
CC(C)C1=CC2=CC[C@@H]3[C@](C)(CCC[C@@]3(C)C(=O)O)[C@H]2CC1 [Abietic Acid] | inhibition
Oc1ccc(C=Cc2cc(O)cc(O)c2)cc1 [Resveratrol] | inhibition
O=C1C[C@@H](c2ccc(O[C@@H]3O[C@H](CO)[C@@H](O)[C@H](O)[C@H]3O)cc2)Oc2cc(O)ccc21 [Liquiritin] | inhibition
O=c1c(O)c(-c2ccc(O)cc2)oc2cc(O)cc(O)c12 [Kaempferol] | inhibition
O=c1c(O)c(-c2ccccc2)oc2cc(O)ccc12 [3,7-Dihydroxyflavone] | inhibition
Cc1ccc(Cl)c(Nc2ccccc2C(=O)O)c1Cl [Meclofenamic Acid] | inhibition
Clc1ccc2c(c1)C(c1ccccc1)=NCc1nncn1-2 [Estazolam] | inhibition
C[C@H](O)[C@H]1CC[C@H]2[C@@H]3C=CC4=CC(=O)CC[C@@]4(C)[C@@H]3CC[C@]12C [20α-Hydroxydydrogesterone] | inhibition

same assay, conditions: literature statements in the text

Compound | kind of AKR1C1 inhibition
CN1CCN=C(c2ccccc2)c2cc(Cl)ccc21 [Medazepam] | non-competitive inhibitors
O=C1C[C@@H](c2ccc(O[C@@H]3O[C@H](CO)[C@@H](O)[C@H](O)[C@H]3O)cc2)Oc2cc(O)ccc21 [Liquiritin] | selective and potent AKR1C1 inhibitor

tested on: PGE2 and PGF2α levels; details: literature

Compound | Activity (prostaglandin levels)
Sennosides | increase PGE2 formation
